Assay results taken from ChEMBL document CHEMBL1156204, “Spectacular modification of Gambogic acid on microwave irradiation in methanol: isolation and structure identification of two products with potent anti-tumor activity” (Bioorg Med Chem Lett, 2010).
Active and inactive are the calls of the source. The calls are words filed in the database; no cut-off is given here.

Key:
HepG2 [1] = experiment: Cytotoxicity against human HepG2 cells after 48 hrs by MTT assay; assay type: functional, cell-based; conditions: HepG2, 48 h
[2] = Cytotoxicity against human BGC803 cells after 48 hrs by MTT assay; assay type: functional, cell-based; conditions: BGC803, 48 h
SGC-7901 = experiment: Cytotoxicity against human SGC7901 cells after 48 hrs by MTT assay; assay type: functional, cell-based; conditions: SGC-7901, 48 h
MCF7 = experiment: Cytotoxicity against human MCF7 cells after 48 hrs by MTT assay; assay type: functional, cell-based; conditions: MCF7, 48 h
HepG2 [3] = experiment: Effect on human HepG2 cell morphology assessed as cell elongation at 1.25 to 5 uM after 24 hrs by inverted-light microscopy; assay type: functional, cell-based
HepG2 [4] = experiment: Effect on human HepG2 cell morphology assessed as induction of membrane blebbing at 1.25 to 5 uM after 24 hrs by inverted-light microscopy; assay type: functional, cell-based
HepG2 [5] = experiment: Effect on human HepG2 cell morphology assessed as induction of cell shrinkage at 1.25 to 5 uM after 24 hrs by inverted-light microscopy; assay type: functional, cell-based
HepG2 [6] = experiment: Effect on human HepG2 cell morphology assessed as formation of round cells at 1.25 to 5 uM after 24 hrs by inverted-light microscopy; assay type: functional, cell-based
HepG2 [7] = experiment: Induction of necrosis in human HepG2 cells at 1.25 to 5 uM after 24 hrs by inverted-light microscopy; assay type: functional, cell-based
HepG2 [8] = experiment: Effect on human HepG2 cell morphology assessed as cell elongation at 0.5 to 2 uM after 24 hrs by inverted-light microscopy; assay type: functional, cell-based
HepG2 [9] = experiment: Effect on human HepG2 cell morphology assessed as induction of membrane blebbing at 0.5 to 2 uM after 24 hrs by inverted-light microscopy; assay type: functional, cell-based
HepG2 [10] = experiment: Effect on human HepG2 cell morphology assessed as induction of cell shrinkage at 0.5 to 2 uM after 24 hrs by inverted-light microscopy; assay type: functional, cell-based
HepG2 [11] = experiment: Effect on human HepG2 cell morphology assessed as formation of round cells at 0.5 to 2 uM after 24 hrs by inverted-light microscopy; assay type: functional, cell-based
HepG2 [12] = experiment: Induction of necrosis in human HepG2 cells at 0.5 to 2 uM after 24 hrs by inverted-light microscopy; assay type: functional, cell-based
HepG2 [13] = experiment: Induction of apoptosis in human HepG2 cells assessed as nuclear condensation at 1.25 to 5 uM after 24 hrs by DAPI staining-based fluorescence microscopy; assay type: functional, cell-based
HepG2 [14] = experiment: Induction of apoptosis in human HepG2 cells assessed as nuclear condensation at 0.5 to 2 uM after 24 hrs by DAPI staining-based fluorescence microscopy; assay type: functional, cell-based
HepG2 [15] = experiment: Induction of apoptosis in human HepG2 cells assessed as appearance of apoptotic bodies at 1.25 to 5 uM after 24 hrs by fluorescence microscopy; assay type: functional, cell-based
HepG2 [16] = experiment: Induction of apoptosis in human HepG2 cells assessed as appearance of apoptotic bodies at 0.5 to 2 uM after 24 hrs by fluorescence microscopy; assay type: functional, cell-based
HepG2 [17] = experiment: Induction of apoptosis in human HepG2 cells assessed as dead cells at 1.25 uM after 24 hrs using annexin-V and propidium iodide staining by flow cytometry; assay type: functional
HepG2 [18] = experiment: Induction of apoptosis in human HepG2 cells assessed as late apoptotic cells at 1.25 uM after 24 hrs using annexin-V and propidium iodide staining by flow cytometry; assay type: functional
HepG2 [19] = experiment: Induction of apoptosis in human HepG2 cells assessed as early apoptotic cells at 1.25 uM after 24 hrs using annexin-V and propidium iodide staining by flow cytometry; assay type: functional
HepG2 [20] = experiment: Induction of apoptosis in human HepG2 cells assessed as viable cells at 1.25 uM after 24 hrs using annexin-V and propidium iodide staining by flow cytometry; assay type: functional; conditions: HepG2, 24 h, read-out: Activity
HepG2 [21] = experiment: Induction of apoptosis in human HepG2 cells assessed as dead cells at 2.5 uM after 24 hrs using annexin-V and propidium iodide staining by flow cytometry; assay type: functional
HepG2 [22] = experiment: Induction of apoptosis in human HepG2 cells assessed as late apoptotic cells at 2.5 uM after 24 hrs using annexin-V and propidium iodide staining by flow cytometry; assay type: functional
HepG2 [23] = experiment: Induction of apoptosis in human HepG2 cells assessed as early apoptotic cells at 2.5 uM after 24 hrs using annexin-V and propidium iodide staining by flow cytometry; assay type: functional
HepG2 [24] = experiment: Induction of apoptosis in human HepG2 cells assessed as viable cells at 2.5 uM after 24 hrs using annexin-V and propidium iodide staining by flow cytometry; assay type: functional; conditions: HepG2, 24 h, read-out: Activity
HepG2 [25] = experiment: Induction of apoptosis in human HepG2 cells assessed as dead cells at 5 uM after 24 hrs using annexin-V and propidium iodide staining by flow cytometry; assay type: functional
HepG2 [26] = experiment: Induction of apoptosis in human HepG2 cells assessed as late apoptotic cells at 5 uM after 24 hrs using annexin-V and propidium iodide staining by flow cytometry; assay type: functional
HepG2 [27] = experiment: Induction of apoptosis in human HepG2 cells assessed as early apoptotic cells at 5 uM after 24 hrs using annexin-V and propidium iodide staining by flow cytometry; assay type: functional
HepG2 [28] = experiment: Induction of apoptosis in human HepG2 cells assessed as viable cells at 5 uM after 24 hrs using annexin-V and propidium iodide staining by flow cytometry; assay type: functional; conditions: HepG2, 24 h, read-out: Activity
HepG2 [29] = experiment: Induction of apoptosis in human HepG2 cells assessed as decrease in Bcl-2 expression at 1.25 to 5 uM after 24 hrs; assay type: functional, cell-based
HepG2 [30] = experiment: Induction of apoptosis in human HepG2 cells assessed as decrease in procaspase-3 expression at 1.25 to 5 uM after 24 hrs; assay type: functional, cell-based
HepG2 [31] = experiment: Induction of apoptosis in human HepG2 cells assessed as dead cells at 0.5 uM after 24 hrs using annexin-V and propidium iodide staining by flow cytometry; assay type: functional
HepG2 [32] = experiment: Induction of apoptosis in human HepG2 cells assessed as late apoptotic cells at 0.5 uM after 24 hrs using annexin-V and propidium iodide staining by flow cytometry; assay type: functional
HepG2 [33] = experiment: Induction of apoptosis in human HepG2 cells assessed as early apoptotic cells at 0.5 uM after 24 hrs using annexin-V and propidium iodide staining by flow cytometry; assay type: functional
HepG2 [34] = experiment: Induction of apoptosis in human HepG2 cells assessed as viable cells at 0.5 uM after 24 hrs using annexin-V and propidium iodide staining by flow cytometry; assay type: functional; conditions: HepG2, 24 h, read-out: Activity
HepG2 [35] = experiment: Induction of apoptosis in human HepG2 cells assessed as dead cells at 1 uM after 24 hrs using annexin-V and propidium iodide staining by flow cytometry; assay type: functional
HepG2 [36] = experiment: Induction of apoptosis in human HepG2 cells assessed as late apoptotic cells at 1 uM after 24 hrs using annexin-V and propidium iodide staining by flow cytometry; assay type: functional
HepG2 [37] = experiment: Induction of apoptosis in human HepG2 cells assessed as early apoptotic cells at 1 uM after 24 hrs using annexin-V and propidium iodide staining by flow cytometry; assay type: functional
HepG2 [38] = experiment: Induction of apoptosis in human HepG2 cells assessed as viable cells at 1 uM after 24 hrs using annexin-V and propidium iodide staining by flow cytometry; assay type: functional; conditions: HepG2, 24 h, read-out: Activity
HepG2 [39] = experiment: Induction of apoptosis in human HepG2 cells assessed as dead cells at 2 uM after 24 hrs using annexin-V and propidium iodide staining by flow cytometry; assay type: functional
HepG2 [40] = experiment: Induction of apoptosis in human HepG2 cells assessed as late apoptotic cells at 2 uM after 24 hrs using annexin-V and propidium iodide staining by flow cytometry; assay type: functional
HepG2 [41] = experiment: Induction of apoptosis in human HepG2 cells assessed as early apoptotic cells at 2 uM after 24 hrs using annexin-V and propidium iodide staining by flow cytometry; assay type: functional
HepG2 [42] = experiment: Induction of apoptosis in human HepG2 cells assessed as viable cells at 2 uM after 24 hrs using annexin-V and propidium iodide staining by flow cytometry; assay type: functional; conditions: HepG2, 24 h, read-out: Activity
HepG2 [43] = experiment: Induction of apoptosis in human HepG2 cells assessed as increase in bax expression at 0.5 to 2 uM after 24 hrs; assay type: functional, cell-based
HepG2 [44] = experiment: Induction of apoptosis in human HepG2 cells assessed as decrease in procaspase-3 expression at 0.5 to 2 uM after 24 hrs; assay type: functional, cell-based
HepG2 [45] = experiment: Induction of apoptosis in human HepG2 cells assessed as increase in active caspase-3 expression at 0.5 to 2 uM after 24 hrs; assay type: functional, cell-based

SMILES | IC50 (HepG2 [1]) | IC50 [2] | IC50 (SGC-7901) | IC50 (MCF7) | Activity (HepG2 [3]) | Activity (HepG2 [4]) | Activity (HepG2 [5]) | Activity (HepG2 [6]) | Activity (HepG2 [7]) | Activity (HepG2 [8]) | Activity (HepG2 [9]) | Activity (HepG2 [10]) | Activity (HepG2 [11]) | Activity (HepG2 [12]) | Activity (HepG2 [13]) | Activity (HepG2 [14]) | Activity (HepG2 [15]) | Activity (HepG2 [16]) | further results
COC(=O)/C(C)=C\C[C@@]12OC(C)(C)[C@@H]3C[C@@H](C=C4C(=O)c5c(O)c6c(c(CC=C(C)C)c5O[C@]431)O[C@]1(C)CCC(=C(C)C)C6C1)C2=O | 1960 nM | 1450 nM | 2150 nM | 1880 nM | Active | Active | Active | Active | Active | Active | Active | Active | Active | Active | Active | Active | Active | Active | Activity (HepG2 [17]): 0.4%; Activity (HepG2 [18]): 4%; Activity (HepG2 [19]): 5.7%; viability at 1.25 µM (HepG2 [20]): 89.8%; Activity (HepG2 [21]): 1.4%; Activity (HepG2 [22]): 4.1%; Activity (HepG2 [23]): 13.6%; viability at 2.5 µM (HepG2 [24]): 80.9%; Activity (HepG2 [25]): 1.8%; Activity (HepG2 [26]): 4.4%; Activity (HepG2 [27]): 20.7%; viability at 5 µM (HepG2 [28]): 73.2%; Activity (HepG2 [29]): Active; Activity (HepG2 [30]): Active
COC(=O)/C(C)=C\C[C@@]12OC(C)(C)[C@@H]3C[C@@H](C=C4C(=O)c5c(O)c(C6C[C@](C)(OC)CCC6=C(C)C)c6c(c5O[C@]431)CCC(C)(C)O6)C2=O (stereo partly drawn) | 1530 nM | 2010 nM | 1510 nM | 1240 nM | Active | Active | Active | Active | Active | Active | Active | Active | Active | Active | Active | Active | Active | Active | Activity (HepG2 [31]): 0.3%; Activity (HepG2 [32]): 1.3%; Activity (HepG2 [33]): 4.3%; viability at 0.5 µM (HepG2 [34]): 94%; Activity (HepG2 [35]): 0.9%; Activity (HepG2 [36]): 2.5%; Activity (HepG2 [37]): 12.9%; viability at 1 µM (HepG2 [38]): 83.7%; Activity (HepG2 [39]): 3.4%; Activity (HepG2 [40]): 8.1%; Activity (HepG2 [41]): 35%; viability at 2 µM (HepG2 [42]): 53.6%; Activity (HepG2 [43]): Active; Activity (HepG2 [44]): Active; Activity (HepG2 [45]): Active
CC(C)=CCC[C@]1(C)C=Cc2c(O)c3c(c(CC=C(C)C)c2O1)O[C@]12C(=C[C@@H]4C[C@H]1C(C)(C)O[C@@]2(C/C=C(/C)C(=O)O)C4=O)C3=O [GAMBOGIC ACID] | 2400 nM | 1540 nM | 1470 nM | 500 nM |  |  |  |  |  |  |  |  |  |  |  |  |  |  | 
COC(=O)/C(C)=C\C[C@@]12OC(C)(C)[C@@H]3C[C@@H](C=C4C(=O)c5c(O)c6c(c(CC=C(C)C)c5O[C@]431)O[C@](C)(CCC=C(C)C)C=C6)C2=O [METHYL GAMBOGATE] | 2530 nM | 1240 nM | 790 nM | 520 nM |  |  |  |  |  |  |  |  |  |  |  |  |  |  | 
